In patent publication US20240262825A1, “PAIN TREATING COMPOUNDS AND USES THEREOF” (BIONOMICS LIMITED, priority 2018, published 2024):

target: T1, hNav1.7 (Homo sapiens, UniProt Q15858); assay: hNav1.7 inactivated state (SIS) automated patch clamp electrophysiology; assay type: cell-based; conditions: Assay Conc. 10 uM; inactivated state protocol, HEK cells, whole-cell Patchliner
T1 construct: expressed in transfected cells
Experimental: hNav1.7, hNav1.2, hNav1.3, hNav1.4, hNav1.5, hNav1.6 were stably expressed in human embryonic kidney cells and kept under constant antibiotic selection. For in vitro assays, cells were maintained in appropriate growth medium at 37° C. and 5% CO2 in a humidified incubator.
Nav1.x expressing cells plated in T-25 flasks for 2-3 days prior to use and grown to 70-85% confluence were briefly trypsinized to obtain a single cell suspension of ˜2-3×10^6 cells/ml. All electrophysiological recordings were performed at ambient temperature (21-23° C.) using automated patch clamp (Patchliner, Nanion Technologies GmbH) in the whole-cell configuration using the following solutions: Internal solution contained (in mM): CsCl (50), NaCl (10), CsF (60), EGTA (20), HEPES (10), pH 7.2 KOH, 285 mOsmol·Kg^−1. External (bath) solution contained (in mM): NaCl (140), KCl (4), MgCl2 (1), CaCl2 (2) D-Glucose monohydrate (5), HEPES (10), pH 7.4 NaOH, 298 mOsmol·kg^−1.
For each Nav1.x channel, a steady state inactivation curve was obtained in order to calculate the voltage resulting in 50% channel inactivation (V0.5inact). A 2 pulse protocol was then employed in which cells held at a voltage corresponding to 20 mV more negative to V0.5 inact were depolarised to −10 mV for 20 ms before returning to the previous holding voltage. This test pulse constituted P1 and represents 100% available (non-inactivated) Nav1.x channels. The same cell was then depolarised for 8 s to a voltage corresponding to 7 mV more positive than V0.5inact in order to cause channel inactivation. Following a brief (2 ms) hyperpolarising voltage step to −120 mV (to reset the activation gate), cells were again subjected to a depolarising test pulse (P2) to −10 mV for 20 ms before returning to the holding potential. Each sequence was repeated 6×at 30 s intervals. Using this protocol, control P2 current amplitudes (representing the % channels available following 8 s inactivation) was ˜50% of control P1 current amplitude. 6 repetitions of this recording sequence were made in the control bath solution and then again 2 minutes after compound addition and thereafter at increasing compound concentrations. % inhibition was calculated by (1−(P2drug at repetition 6/P2control at repetition 6))*100. Data were either presented as % block by a single concentration of drug or an estimated eIC50 determined from 2-3 drug concentrations which was determined by fitting data with a sigmoidal dose response curve (variable slope) using GraphPad Prism software (Version 6.0).
All compounds were dissolved in DMSO to 20 mM initially. Subsequent dilutions in DMSO were made to achieve 200×final bath concentrations. DMSO compound stocks were finally diluted 1/200 in bath solution just prior to assay resulting in a final DMSO concentration of 0.5% which was not found to affect control current amplitude.

T1 sequence (Q15858 whole entry): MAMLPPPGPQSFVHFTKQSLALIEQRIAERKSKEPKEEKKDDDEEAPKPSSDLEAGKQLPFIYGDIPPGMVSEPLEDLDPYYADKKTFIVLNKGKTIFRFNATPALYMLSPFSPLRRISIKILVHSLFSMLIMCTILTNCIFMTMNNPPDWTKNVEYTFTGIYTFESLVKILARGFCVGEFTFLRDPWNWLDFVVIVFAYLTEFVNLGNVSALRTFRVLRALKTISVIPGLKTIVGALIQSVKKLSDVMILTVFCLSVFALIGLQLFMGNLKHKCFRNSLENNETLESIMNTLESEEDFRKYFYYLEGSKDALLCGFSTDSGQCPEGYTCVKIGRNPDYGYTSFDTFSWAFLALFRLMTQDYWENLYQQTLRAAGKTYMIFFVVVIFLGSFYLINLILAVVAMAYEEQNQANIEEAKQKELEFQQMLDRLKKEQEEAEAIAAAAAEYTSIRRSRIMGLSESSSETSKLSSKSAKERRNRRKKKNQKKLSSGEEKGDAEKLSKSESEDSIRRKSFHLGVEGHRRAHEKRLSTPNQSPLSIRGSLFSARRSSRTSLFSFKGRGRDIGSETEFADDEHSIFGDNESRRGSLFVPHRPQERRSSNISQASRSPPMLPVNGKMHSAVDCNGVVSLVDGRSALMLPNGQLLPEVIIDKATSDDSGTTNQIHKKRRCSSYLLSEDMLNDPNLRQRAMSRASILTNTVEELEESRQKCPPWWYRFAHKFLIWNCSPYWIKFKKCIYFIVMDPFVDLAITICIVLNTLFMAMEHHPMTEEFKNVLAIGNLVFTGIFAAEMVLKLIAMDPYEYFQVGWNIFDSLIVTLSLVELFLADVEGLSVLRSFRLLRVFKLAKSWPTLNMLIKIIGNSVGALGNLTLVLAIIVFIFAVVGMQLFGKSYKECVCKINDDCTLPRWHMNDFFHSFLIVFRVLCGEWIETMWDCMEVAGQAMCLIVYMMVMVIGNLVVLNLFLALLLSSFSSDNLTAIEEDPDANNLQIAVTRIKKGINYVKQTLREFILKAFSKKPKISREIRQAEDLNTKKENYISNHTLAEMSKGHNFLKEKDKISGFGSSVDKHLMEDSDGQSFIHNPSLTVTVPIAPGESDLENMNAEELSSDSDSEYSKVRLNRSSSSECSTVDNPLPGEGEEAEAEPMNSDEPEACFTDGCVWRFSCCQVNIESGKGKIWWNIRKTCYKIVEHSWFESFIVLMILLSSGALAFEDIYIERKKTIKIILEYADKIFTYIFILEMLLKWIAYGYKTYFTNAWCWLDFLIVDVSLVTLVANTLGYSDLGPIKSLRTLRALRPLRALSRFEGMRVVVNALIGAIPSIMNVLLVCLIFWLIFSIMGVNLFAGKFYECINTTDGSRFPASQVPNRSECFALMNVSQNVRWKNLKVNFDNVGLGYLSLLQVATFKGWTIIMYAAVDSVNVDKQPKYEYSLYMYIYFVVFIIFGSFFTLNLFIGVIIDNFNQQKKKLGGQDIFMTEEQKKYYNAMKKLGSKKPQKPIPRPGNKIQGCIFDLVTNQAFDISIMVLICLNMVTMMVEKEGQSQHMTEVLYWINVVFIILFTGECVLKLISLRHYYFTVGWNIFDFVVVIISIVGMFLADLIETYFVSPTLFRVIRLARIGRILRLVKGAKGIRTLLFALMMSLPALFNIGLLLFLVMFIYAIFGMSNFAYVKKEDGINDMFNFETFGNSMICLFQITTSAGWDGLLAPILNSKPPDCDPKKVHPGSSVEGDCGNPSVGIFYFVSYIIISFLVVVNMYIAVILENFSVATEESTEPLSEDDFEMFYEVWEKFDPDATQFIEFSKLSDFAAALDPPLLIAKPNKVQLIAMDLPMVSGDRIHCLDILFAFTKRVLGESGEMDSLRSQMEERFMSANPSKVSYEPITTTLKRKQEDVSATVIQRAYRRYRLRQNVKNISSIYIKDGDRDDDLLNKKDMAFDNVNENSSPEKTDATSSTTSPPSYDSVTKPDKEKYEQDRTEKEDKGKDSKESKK

hNav1.7 SIS (% inh) [%]	Compound
71	O=C(NCc1ccc(OCc2ccccc2F)cc1)c1cn2ccccc2n1 [Compound 25]

same assay, conditions: HEK293, Assay Conc. 3 uM; inactivated state protocol, HEK cells, whole-cell Patchliner; read-out: hNav1.7 SIS (% inh)

inhibition at 3 µM [%]	Compound
61	O=C(NCc1ccc(OCc2ccccc2F)cc1)c1csc(C(F)(F)F)n1 [Compound 23]

same assay, conditions: HEK293, Assay Conc. 10 uM; inactivated state protocol, HEK cells, whole-cell Patchliner; read-out: hNav1.7 SIS (% inh)

Compound	inhibition at 10 µM [%]
O=C(NCc1ccc(OCc2ccccc2F)cc1)c1cc2cccn2cn1 [Compound 2]	48
CN(Cc1ccc(OCc2ccccc2F)cc1)C(=O)c1csc(C(F)(F)F)n1 [Compound 4]	36
CC(C)(Oc1ccc(CNC(=O)c2cccn3cnnc23)cc1)c1ccccc1F [Compound 7]	35
O=C(NCc1ccc(OCc2ccccc2F)cc1)c1ccn2cnnc2c1 [Compound 10]	30
O=C(NCc1ccc(OCc2ccccc2F)cc1)c1cccc2ncnn12 [Compound 13]	42
O=C(NCc1ccc(OCc2ccccc2F)cc1)c1cccn2ncnc12 [Compound 14]	49
O=C(NCc1ccc(OCc2ccccc2F)cc1)c1ccn2ncnc2c1 [Compound 15]	51
O=C(NCc1ccc(OCc2ccccc2F)cc1)c1ccn2cncc2c1 [Compound 18]	50
O=C(NCc1ccc(OCc2ccccc2F)cc1)c1cccc2cncn12 [Compound 19]	35
O=C(NCc1ccc(OCc2ccccc2F)cn1)c1cccn2cnnc12 [Compound 20]	36
COC[C@H](C)N(Cc1ccc(OCc2ccccc2F)cc1)C(=O)c1cn2ccccc2n1 [Compound 24]	63
CN(Cc1ccc(OCc2ccccc2F)cc1)C(=O)c1cn2ccccc2n1 [Compound 27]	92
O=C(NCc1ccc(OCc2ccccc2F)cc1)c1ccc2cncn2c1 [Compound 46]	34
O=C(NCc1ccc(OCC2CCCC2)cc1)c1ccn2ccnc2c1 [Compound 52]	45

Now from value to compound:

inhibition at 10 µM [%]	Compound
41	O=C(NCc1ccc(OCc2ccccc2F)cc1)c1cccnc1 [Compound 1]
34	O=C(NCc1ccc(OCc2ccccc2F)cc1)c1cn[nH]c1 [Compound 3]
39	Cc1nc(C(=O)NCc2ccc(OCc3ccccc3F)cc2)cs1 [Compound 5]
47	COc1ncc(C(=O)NCc2ccc(OCc3ccccc3F)cc2)cn1 [Compound 6]
44	Cc1n[nH]c(C(=O)NCc2ccc(OCc3ccccc3F)cc2)n1 [Compound 8]
35	O=C(NCc1ccc(OCc2ccccc2F)cc1)c1nnc(C2CC2)o1 [Compound 9]
34	O=C(NCc1ccc(OCc2ccccc2F)cc1)c1cc[nH]c(=O)c1 [Compound 11]
35	Cn1ccc(C(=O)NCc2ccc(OCc3ccccc3F)cc2)cc1=O [Compound 12]
32	Cn1cccc(C(=O)NCc2ccc(OCc3ccccc3F)cc2)c1=O [Compound 16]
32	COc1ncccc1C(=O)NCc1ccc(OCc2ccccc2F)cc1 [Compound 17]
52	O=C(NCc1ccc(OCc2ccccc2F)cc1)c1cscn1 [Compound 21]
59	Cc1cnc(C(=O)NCc2ccc(OCc3ccccc3F)cc2)cn1 [Compound 22]
56	O=C(NCc1ccc(OCc2ccccc2F)cc1)c1cn2ccccc2n1 [Compound 53]

same assay, conditions: estimated eIC50 from 2-3 drug concentrations; inactivated state protocol

Compound	IC50 [µM]
COC[C@H](C)N(Cc1ccc(OCc2ccccc2F)cc1)C(=O)c1cn2ccccc2n1 [Compound 24]	7.2
O=C(NCc1ccc(OCc2ccccc2F)cc1)c1ccn2ccnc2c1 [Compound 26]	5.2
CN(Cc1ccc(OCc2ccccc2F)cc1)C(=O)c1cn2ccccc2n1 [Compound 27]	4.3
CC(C)(Oc1ccc(CNC(=O)c2cccn3ccnc23)cc1)c1ccccc1F [Compound 28]	2.6
CC(C)(Oc1ccc(CNC(=O)c2ccn3ccnc3c2)cc1)c1ccccc1F [Compound 29]	6.5
O=C(NCc1ccc(OCc2ccccc2F)cc1)c1cccn2nnnc12 [Compound 30]	7.5
O=C(NCc1ccc(OCc2ccccc2F)cc1)c1nccn2ccnc12 [Compound 31]	3.2
O=C(NCc1ccc(OCc2ccccc2F)cc1)c1cnc2ccccn12 [Compound 37]	8.9
O=C(NCc1ccc(OCc2ccccc2F)cc1)c1cccc2ccnn12 [Compound 38]	3.2
O=C(NCc1ccc(OCc2ccccc2F)cc1)c1cccn2cnnc12 [Compound 39]	4.1
COC[C@@H](C)N(Cc1ccc(OCc2ccccc2F)cc1)C(=O)c1cn2ccccc2n1 [Compound 44]	6.3
O=C(NCc1ccc(OCC2CCCCC2)cc1)c1ccc2cncn2c1 [Compound 47]	3.6
O=C(NCc1ccc(OCC2CCCCC2)cc1)c1ccn2ccnc2c1 [Compound 48]	5.7
O=C(NCc1ccc(OCC2CCCCC2)cc1)c1cccn2cnnc12 [Compound 49]	2.5
O=C(NCc1ccc(OCC2CCCCC2)cc1)c1cn2ccccc2n1 [Compound 50]	3.2
O=C(NCc1ccc(OCC2CCCC2)cc1)c1cccn2cnnc12 [Compound 51]	0.98

Other lines, results leading:

IC50 [µM]	Compound
1.9	O=C(NCc1ccc(OCc2ccccc2F)cc1)c1csc(C(F)(F)F)n1 [Compound 23]
5.7	O=C(NCc1ccc(OCc2ccccc2F)cc1)c1cn2ccccc2n1 [Compound 25]
5.9	Cn1cnc(C(=O)NCc2ccc(OCc3ccccc3F)cc2)n1 [Compound 32]
7.5	O=C(NCc1ccc(OCc2ccccc2F)cc1)c1nc(C(F)(F)F)cs1 [Compound 33]
9.4	Cc1csc(C(=O)NCc2ccc(OCc3ccccc3F)cc2)n1 [Compound 34]
5.5	Cc1nc(C(=O)NCc2ccc(OCc3ccccc3F)cc2)sc1C [Compound 35]
5.6	Cc1cccc(C(=O)NCc2ccc(OCc3ccccc3F)cc2)n1 [Compound 36]
3.5	O=C(NCc1ccc(OCc2ccccc2F)cc1)c1cccn2ccnc12 [Compound 40]
8.9	Cc1cc(C(=O)NCc2ccc(OCc3ccccc3F)cc2)n(C)n1 [Compound 41]
6.2	CC(C)c1cc(C(=O)NCc2ccc(OCc3ccccc3F)cc2)n[nH]1 [Compound 42]
8.6	Cc1nc(C(=O)NCc2ccc(OCc3ccccc3F)cc2)cn1C [Compound 43]
7.6	O=C(NCc1ccc(OCc2ccccc2F)cc1)c1cccn2cncc12 [Compound 45]
